Assay results published in US20160074298A1, “POLYPHENOL/FLAVONOID COMPOSITIONS AND METHODS OF FORMULATING ORAL HYGIENIC PRODUCTS” (VIZURI HEALTH SCIENCES LLC, priority 2014, published 2016).

Key:
[1] = Saliva concentrations of chronic 1% apigenin toothpaste users (Example 12); type: in vivo, human; conditions: chronic users of PeroxiCare with 1% apigenin
Experimental: Two subjects who have used PeroxiCare® with apigenin at a 1% concentration on a chronic basis provided saliva samples at:
(§1) Saliva was collected at each time point in 50 ml Falcon tubes and immediately transferred to a freezer. All samples were transported to Tufts University within 24 hours of collection. Apigenin in saliva was quantified using high performance liquid chromatograph (HPLC) with electrochemical detection (ECD). Apigenin in 1 ml saliva was extracted using 3 ml acetonitrile. After 2 min of rigorous vortexing, the mixture was spun at 2,000 rpm for 15 min at 4° C. Supernatant was dried under N2 gas, reconstituted with mobile phase A, and analyzed for apigenin with HPLC-ECD. The limit of quantification (LOQ) for apigenin and EGCG in this assay is 15 and 25 ng/ml saliva, respectively.

[2] = Stability in alkaline toothpaste with sodium bicarbonate and peroxide; type: physicochemical; conditions: high pH ~10-10.5; sodium bicarbonate, sodium carbonate peroxide, peroxide stabilizer
Experimental: It was experimentally determined that the toothpaste formulations containing both sodium bicarbonate and sodium carbonate peroxide together with stabilizing polymer formulations had pHs of ˜10-10.5. When aglycone flavone (i.e., apigenin and luteolin) powders were added to dentifrices including sodium bicarbonate, sodium bicarbonate peroxide and a peroxide stabilizer, it was also determined that soluble flavone sodium salts were formed that were stable in these highly oxidative peroxide compositions. The presence of stable soluble alkali metal flavone salts with highly anti-oxidant and anti-inflammatory properties in an emulsion formulation was totally unanticipated since aglycone flavones are prone to oxidative decomposition. Curcumin calcium chelate was fabricated and found to be stable in high pH PeroxiCare® toothpaste. Other curcumin chelates (Boron, Zn) were also found to be stable in this formulation, but were not tested in this study. This study was designed to determine if curcumin solubilized using either a heat solubilization or chelated salt technology performed in the same way as earlier results with the flavone apigenin. Vanillin is a breakdown product of curcumin and would be present if the curcumin had substantially decomposed (the lack of vanillin is indicative of a stable delivery of curcumin).

[3] = Heat solubilization in Kolliphor RH-40; type: physicochemical
Excerpt: Step 1. […] Step 3. […] Step 4. […] About 5% solution was stable. Step 1. […] Step 3.

[4] = Apigenin and EGCG in saliva following use of formulated toothpastes (Example 15); type: in vivo, human; conditions: formulated into a toothpaste product
Experimental: This is a clinical study testing the effect of using one of 3 toothpaste products formulated with apigenin and epigallocatechin gallate (EGCG) on the retention of these flavonoids in the saliva. Briefly, 3 subjects provided saliva samples:
Each subject brushed their teeth for 2 min using the sulcular brushing technique with ˜1.8 gm toothpaste on a new toothbrush. Each subject brushed with only one of 3 products:
Saliva was collected at each time point in 50 mL Falcon tubes and immediately transferred to a freezer. All samples were transported to Tufts University within 8 hours of collection.
as §1, with “Apigenin” for “Saliva was collected at each time point in 50 ml Falcon tubes and immediately transferred to a freezer. All samples were transported to Tufts University within 24 hours of collection. Apigenin”, “Apigenin and EGCG” for “Apigenin”, “1 mL” for “1 ml”

[5] = Water solubility of flavonoid classes (Table XXIII); type: physicochemical; conditions: 20° C.
[6] = Colorimetric retention of EGCG in saliva after brushing (Example 14); type: in vivo, human; conditions: PeroxiCare toothpaste with 0.1 wt. % EGCG and 0.1 wt. % ascorbic acid, pH ~10.5; saliva after brushing and rinsing
Experimental: A saliva sample with an EGCG containing alkaline toothpaste was obtained (1) before brushing and (2) 1 minute after brushing immediately after rinsing. The subject brushed for 2 minutes using the sulcular brushing technique with ˜1.8 gm toothpaste on a toothbrush.
A 5 ml sample of saliva was collected 10 minutes prior to brushing. Tooth brushing was conducted for 2 minutes with 1.8 gm of toothpaste applied to the brush. One minute after brushing, the oral cavity was rinsed with 50 ml of water. Following rinsing, about 8 ml of saliva was collected. The pH of the saliva was measured. In addition, the saliva samples were further made alkaline with the addition of NaOH crystals and the color of the resulting sample noted.

[7] = Solubilization in Listerine mouth rinse as sodium salt; type: physicochemical
Experimental: 100 Grams of the Listerine® Resveratrol Containing Mouth Rinse Formulation was Prepared as Follows: • 1. 98.4 grams of the Listerine® caramel colored mouth rinse was added to a 300 ml Pyrex glass beaker. […] About 0.2 grams of fine NaOH crystals were added to the mixture from Step 2 and thoroughly mixed. A uniformly caramel colored blend resulted with a measured pH of ˜10. […] The pH of the mixture from Step 3 was adjusted to a pH 6.5 by the addition of about 0.2 grams of citric acid crystals. […] • 1. 98.6 grams of the Listerine® caramel colored mouthrinse was added to a 300 ml Pyrex glass beaker. […] About 0.2 grams of fine NaOH crystals were added to the mixture from Step 2 and thoroughly mixed. A uniformly caramel colored blend resulted with a measured pH of ˜10. […] The pH of the mixture from Step 2 was adjusted to a pH 8 by the addition of about 0.2 grams of citric acid crystals.

[8] = Stability of aqueous microemulsions as a function of pH; type: physicochemical; conditions: nonionic surfactants Polysorbate 80 and Cremophor/Kolliphor RH-40
Excerpt: Stable microemulsions with apigenin and the nonionic surfactants, Polysorbate 80 and Cremophor/Kolliphor RH-40, were achieved provided a pH level of 8.0 to 8.5 was maintained. For luteolin, it as determined that a pH of 7 was required to maintain a stable aqueous microemulsion; and for resveratrol, a pH of >4.5 to 7.5.

Question: With `O=c1cc(-c2ccc(O)cc2)oc2cc(O)cc(O)c12` [Apigenin, 4′,5,7,-trihydroxyflavone] as the molecule, how does the “stable apigenin concentrate in PS80” value (5.0 wt. % apigenin in PS80, heated approaching 300 degree C, cooled to ambient) read?
Answer: 50 mg/mL

Question: And the “persistence of apigenin levels in saliva post-brushing” value [1]?
Answer: at least 8 hours

Question: And the “stability in alkaline peroxide toothpaste (PeroxiCare)” value [2]?
Answer: stable

Question: And the “apigenin solubilized in RH-40” value [3]?
Answer: more than 5%

Question: And the “time found in saliva following toothpaste use” value [4]?
Answer: at least one hour

Question: For `O.Oc1cc(O)c2c(c1)O[C@H](c1ccc(O)c(O)c1)[C@@H](O)C2` [Catechin], which “PS80 Solubility” value (20° C., thermal processing method, not the maximum solubility levels) is on record?
Answer: 50 mg/mL

Question: What about the “Water Solubility” value [5] of the same molecule?
Answer: ~5 mg/mL

Question: With `O=C(O[C@@H]1Cc2c(O)cc(O)cc2O[C@@H]1c1cc(O)c(O)c(O)c1)c1cc(O)c(O)c(O)c1` [Epigallocatechin Gallate (EGCG), Epigallocatechin gallate] as the molecule, how does the “retention of EGCG in saliva by color change on alkalizing” value [6] read?
Answer: retained after brushing

Question: What about the “time found in saliva following toothpaste use” value [4] of the same molecule?
Answer: at least one hour

Question: What does the source list for `O=c1cc(-c2ccc(O)c(O)c2)oc2cc(O)cc(O)c12` [luteolin, 3′,4′,5,7-tetrahydroxyflavone]?
Answer: luteolin concentration of transparent solution ([7]; adjusted to pH 8): 1.5 mg/mL; pH required to maintain a stable aqueous microemulsion [8]: 7; stability in alkaline peroxide toothpaste (PeroxiCare) [2]: stable

Question: For `Oc1ccc(C=Cc2cc(O)cc(O)c2)cc1` [resveratrol], which “resveratrol concentration of transparent solution” value ([7]; adjusted to pH 6.5) is on record?
Answer: 1.2 mg/mL

Question: With calcium-curcumin chelate as the molecule, how does the “stability in alkaline peroxide toothpaste (PeroxiCare)” value [2] read?
Answer: stable

Question: What about the “behaviour in Kolliphor RH-40” value ([3]; equivalent concentration of 20% curcumin) of the same molecule?
Answer: precipitates out

Question: What about the “stable solution in Kolliphor RH-40” value ([3]; heat solubilized) of the same molecule?
Answer: About 5%
